Test system: HCT-116 colon cancer cell line
Assay: MTT cell proliferation assay on HCT-116 cells
Assay type: cell-based
Description: For cell culture experiments various cancer cell lines, HCT-116 colon cancer, U87-MG glial tumor, MCF7 breast cancer cell lines were used. Cells were seeded with high glucose DMEM medium (Biosera) supplemented with 10% FBS (Gibco) and 1X penicillin/streptomycin (Multicell). Twenty-four hours prior to molecule treatment, 10,000 cells were seeded into each well of 24-well cell culture plates. Molecules were used by preparing 4 mM stock solution in DMSO (Amresco). For molecule treatment, molecule stock solutions were diluted in DMEM with 10% FBS and added onto cells in each corresponding well. Final concentration of vehicle DMSO was 2% at maximum. […] We calculated the number of cells to be seeded to make sure that none of the cells reaches more than 60% confluency during the treatment period, as higher plate confluency levels would slow down cell proliferation independently from the molecule treatment.
Values of half-maximal inhibitory concentration were (IC50) determined by MTT cell proliferation assays. […] 570 nm absorbance values were recorded and IC50 values were calculated by dose response—inhibition curves and nonlinear regression analysis on GraphPad Prism 8 software. […] Following the initial incubation day, molecules were added and after incubation with MTT at 37° C. for 4 hours, formazan was solubilized with DMSO (Sigma-Aldrich, St. Louis, USA) and absorbance was measured at 570 nm. […]

CCC(C)(C)C1CCc2c(sc(NC(=O)c3cc(-c4ccc(Cl)s4)nc4ccccc34)c2C(N)=O)C1 (centres unmarked) [compound of formula I]
proliferation of HCT-116 cells compared to vehicle group (FIG. 1, versus vehicle (max 2% DMSO)): reduced proliferation and apoptotic cell structures
IC50 (Homo sapiens, 72 h, single treatment, three days results, 570 nm absorbance, read-out: IC50 (half-maximal inhibitory concentration)): 130 µM
